Data reported in US20100273656A1, “COMPOSITION AND METHOD FOR SELECTIVE HERBICIDE” (priority 2002, published 2010).

Legend:
Park Lawn = assay: Example 22 field test FeIDS and/or FeHEDTA with Killex, Park Lawn; format: in vivo; settings: A7 = 7 days after treatment
Description: Plants were fertilized with an all purpose water-soluble fertilizer mix of 20-20-20 (N-P-K; Plant-Prod®) as needed. All broadleaf weeds were grown individually in a 2¼-inch pot until they were a suitable size for herbicide tests (actual weed size is reported in examples below). Perennial ryegrass was also grown in 2¼-inch pots, however many grass seeds were sown in the pot to simulate a small section of turf. Grass plants were continually trimmed to a height of 4 cm, simulating that of a homeowner's lawn. For field tests, plots ¼ m^2 in size were marked out in areas containing the targeted broadleaf weed species growing in turf grass. Plots were continually mowed to simulate a homeowner's lawn. […] In all of the examples, the amounts of the various herbicide components are identified as a percent on a weight basis. […]
(§1) All visual plant damage assessments were made using a quantitative rating scale; percent control relative to the untreated check (0=no effect; 100=plant death).
Materials and Methods: Plots ¼ m^2 in size were marked out in white clover and Park Lawn (turfgrass mixture comprising of 65% perennial ryegrass, 25% chewings/creeping red fescue and 10% Kentucky bluegrass) area in the field. […] Phytotoxicity (%) was assessed on 7 days after treatment (A7).

dandelion = assay: Example 21 Fe chelates with Killex, dandelion; format: in vivo, Taraxacum officinale; settings: A29 = 29 days after treatment
Description: (§2) Plants were fertilized with an all purpose water-soluble fertilizer mix of 20-20-20 (N-P-K; Plant-Prod®) as needed. All broadleaf weeds were grown individually in a 2¼-inch pot until they were a suitable size for herbicide tests (actual weed size is reported in examples below). Perennial ryegrass was also grown in 2¼-inch pots, however many grass seeds were sown in the pot to simulate a small section of turf. Grass plants were continually trimmed to a height of 4 cm, simulating that of a homeowner's lawn. For field tests, plots ¼ m^2 in size were marked out in areas containing the targeted broadleaf weed species growing in turf grass. Plots were continually mowed to simulate a homeowner's lawn. […] In all of the examples, the amounts of the various herbicide components are identified as a percent on a weight basis.
(§3) Killex® (Scotts Canada, Ltd., Ontario, Canada) is a commonly used selective lawn herbicide and was used as the commercial herbicide for herbicide combinations. The labeled dilution and application rates for Killex® are 6 ml into 1 L of solution (0.6%) applied at 200 ml/m^2.
as §1
Materials and Methods: This trial was conducted in the greenhouse. […] Phytotoxicity (%) was assessed 29 days after treatment (A29).

dandelions [1] = assay: Example 10 FeHEDTA at 0.1% and 0.2% Fe on potted dandelions; format: in vivo, Taraxacum officinale
Description: This test investigated using 0.1% (17.9 mM) and 0.2% (35.8 mM) iron, as FeHEDTA, to kill potted dandelions. The solutions contained 10% excess chelating agent.
Small (12 cm diameter) to medium (20 cm diameter) sized, greenhouse-grown dandelions were used. These sizes of dandelions are typically found in lawns. The plants were re-sprayed 7 days after the first spray.

dandelions [2] = assay: Example 6 various Fe chelates, dandelion phytotoxicity; format: in vivo, Taraxacum officinale
Description: The following non-limiting examples serve to further describe the invention. Unless otherwise specified, all of the iron solutions were made using the same molar concentration of iron ion as chelating agent. All of the outside tests were done on areas of mixed grass and dandelions that were at least 2 months old. For the greenhouse tests, dandelions were grown in a commercial greenhouse mix, using supplemental lighting and heating. Each plant was grown in a 2¼ inch pot to a minimum diameter of 20 cm. All of the solutions were sprayed onto the plants at a rate of 100 ml/m^2. The ferrous sulfate formulations that were used in examples 1, 2, 8 and 9 contained 1% iron (180 mM), 18 mM EDTA, 1% citric acid and 0.5% urea. In all of the examples, the amount of iron is identified in brackets as the percent iron on a weight basis.
All plant damage was assessed using a qualitative rating scale from 0 to 9.
This test compared EDG (ethanol diglycine) and EDDS at 0.4% Fe+3 (71.6 mM), with HEDTA 0.2% Fe+3 (35.8 mM). FeEDDS and FeEDG were made with 100% excess chelating agent. FeHEDTA was made with 10% excess chelating agent. The solutions were sprayed onto greenhouse grown dandelions. The plants were resprayed after 7 days.

[3] = system: hairy cat's ear (Hypochoeris radicata); assay: Example 13 field test, hairy cat's ear; format: in vivo
Description: Killex® (Green Cross, Ontario, Canada) is a commonly used selective lawn herbicide and was included in several field tests as a standard. Killex contains 2,4-D (9.5%), mecoprop (5%) and dicamba (0.9%). The product was diluted 6 ml into 1 L of water solution and applied at rate of 200 ml/m^2, as per label instructions.
This test evaluated FeEDDS (0.4% Fe^+3) and FeHEDTA (0.2% Fe^+3) for controlling the weed hairy cat's ear (Hypochoeris radicata), also known as “false dandelion”, grown in areas of mixed grass and Hypochoeris. The iron solutions were sprayed at a rate of 100 ml/m^2 to 1.0 m^2 plots. The iron treatments were resprayed after 7 and 14 days. Killex (Solaris ON, Canada) was diluted and applied once as per label instructions of 6 ml /L applied at 200 ml/m^2.

perennial ryegrass = assay: Example 19 FeHEDTA with Killex at reduced rates, perennial ryegrass; format: in vivo; settings: Killex ® 0%, 7 days after application
Description: as §2, §3, §1
Materials and Methods: This trial was conducted in the greenhouse. Ten broadleaf plantain plants and 5 pots of perennial ryegrass were selected for each treatment. Herbicide solutions were prepared using deionized water. The treatments were applied using a hand-trigger sprayer at 200 ml/m^2. All treatments were applied once. Phytotoxicity (%) was assessed 7 days after application (A7).

## O=C([O-])CN(CCO)CCN(CC(=O)[O-])CC(=O)[O-].[Fe+3] [FeHEDTA]
Park Lawn
  Phytotoxicity (%) on Park Lawn: 3%
dandelion
  Phytotoxicity (%) against dandelion: 24%
Dandelions [1]; 12 to 20 cm diameter dandelions
  susceptibility of dandelions, in words: very susceptible
Dandelions [1]; dandelion diameter 12 cm, 7 + 6 days (re-sprayed after 7 days)
  Dead Dandelions (#/10): 10 #/10
Dandelions [1]; dandelion diameter 12 cm, 6 days after spraying, listed as FeHEDTA (0.1% Fe)
  Dead Dandelions (#/10): 2 #/10
Dandelions [1]; dandelion diameter 12 cm, 6 days after spraying, listed as FeHEDTA (0.2% Fe)
  Dead Dandelions (#/10): 8 #/10
Dandelions [1]; dandelion diameter 16 cm, 7 + 6 days, listed as FeHEDTA (0.1% Fe)
  Dead Dandelions (#/10): 3 #/10
Dandelions [1]; dandelion diameter 16 cm, 7 + 6 days, listed as FeHEDTA (0.2% Fe)
  Dead Dandelions (#/10): 10 #/10
Dandelions [1]; dandelion diameter 16 cm, 6 days after spraying, listed as FeHEDTA (0.1% Fe)
  Dead Dandelions (#/10): 1 #/10
Dandelions [1]; dandelion diameter 16 cm, 6 days after spraying, listed as FeHEDTA (0.2% Fe)
  Dead Dandelions (#/10): 3 #/10
Dandelions [1]; dandelion diameter 20 cm, 7 + 6 days, listed as FeHEDTA (0.1% Fe)
  Dead Dandelions (#/10): 3 #/10
Dandelions [1]; dandelion diameter 20 cm, 7 + 6 days, listed as FeHEDTA (0.2% Fe)
  Dead Dandelions (#/10): 8 #/10
Dandelions [1]; dandelion diameter 20 cm, 6 days after spraying, listed as FeHEDTA (0.1% Fe)
  Dead Dandelions (#/10): 0 #/10
Dandelions [1]; dandelion diameter 20 cm, 6 days after spraying, listed as FeHEDTA (0.2% Fe)
  Dead Dandelions (#/10): 1 #/10
Dandelions [2]; 7 + 5 days after spraying
  Dead Plants (#/10): 3 #/10
Dandelions [2]; 7 + 5 days after spraying (resprayed after 7 days)
  Plant Damage (0 to 9): 8.1 0 to 9
Dandelions [2]; 7 days after spraying
  Plant Damage (0 to 9): 1.3 0 to 9
[3]; day 0
  Area Covered by Hairy Cat's Ear (%): 65%
  Relative Cat's Ear Area (Start = 100%): 100%
[3]; day 6
  Area Covered by Hairy Cat's Ear (%): 20%
  Relative Cat's Ear Area (Start = 100%): 31%
[3]; day 8
  Area Covered by Hairy Cat's Ear (%): 20%
  Relative Cat's Ear Area (Start = 100%): 31%
[3]; day 14
  Area Covered by Hairy Cat's Ear (%): 5%
[3]; day 15
  Relative Cat's Ear Area (Start = 100%): 8%
[3]; day 18
  Area Covered by Hairy Cat's Ear (%): 0%
  Relative Cat's Ear Area (Start = 100%): 0%
Perennial ryegrass; listed as FeHEDTA 0.1% Fe
  A7 Phytotoxicity (%) against perennial ryegrass: 1%
Perennial ryegrass; listed as FeHEDTA 0.2% Fe
  A7 Phytotoxicity (%) against perennial ryegrass: 1%
Perennial ryegrass; listed as FeHEDTA 0.4% Fe
  A7 Phytotoxicity (%) against perennial ryegrass: 2%
